Values joined by “and” are separate entries in the source; they are usually repeats but may differ in a detail not shown here. Equal entries are not always repeated.
What was measured:
[1] = molar heat capacity at constant pressure; mn = molality of the nth substance listed, in mol/kg; conditions: 298.15 K, 100 kPa, Liquid
[2] = mn = molality of the nth substance listed, in mol/kg; conditions: 298.15 K, 100 kPa, Liquid, Vibrating tube method

O=C[O-].[Na+] [sodium methanoate] + O
Conditions	mass density, [2] [kg/m3]	molar heat capacity at constant pressure, [1] [J/K/mol]
m1 = 0.00974	997.482	74.69
m1 = 0.01004	997.512	74.71
m1 = 0.02003	997.907	74.79
m1 = 0.02065	997.932	74.7
m1 = 0.04058	998.75	74.71
m1 = 0.04064	998.753	74.79
m1 = 0.06027	999.589	74.76
m1 = 0.06153	999.685	74.66
m1 = 0.08026	1000.45	74.73
m1 = 0.08098	1000.47	74.63
m1 = 0.1002	1001.25	74.72
m1 = 0.1006	1001.27	74.62
m1 = 0.1998	1005.36	74.62
m1 = 0.25	1007.39	74.49
m1 = 0.5003	1017.41	74.3
m1 = 0.5005	1017.34	74.41
m1 = 0.75	1027.24	74.33
m1 = 0.7507	1027.17	74.18
m1 = 1	1036.61	73.86
m1 = 1.008	1037.01	74.26
m1 = 2	1072.42	74.32
m1 = 2.576	1092.07	75.46
m1 = 3.968	1134.81	75.93
m1 = 4	1135.38	75.98
m1 = 5.998	1188.91	78.43
m1 = 6.036	1190.2	77.81
m1 = 8.011	1235.13	81.13
m1 = 10.01	1275.62	84.02

CCC(=O)[O-].[Na+] [sodium propanoate] + O
[1], Flow calorimetry
Conditions	molar heat capacity at constant pressure [J/K/mol]
m1 = 0.01002	75.35
m1 = 0.02029	75.37
m1 = 0.04064	75.41
m1 = 0.06027	75.44
m1 = 0.08026	75.47
m1 = 0.1002	75.51
m1 = 0.1998	75.69
m1 = 0.5005	76.31
m1 = 0.7511	76.87
m1 = 1	77.48
m1 = 1.982	80.19
m1 = 3.972	86.51
m1 = 5.982	92.7
m1 = 8.004	98.52

[2]
Conditions	mass density [kg/m3]
m1 = 0.01002	997.478
m1 = 0.02029	997.9
m1 = 0.04064	998.74
m1 = 0.06027	999.536
m1 = 0.08026	1000.38
m1 = 0.1002	1001.21
m1 = 0.1998	1005.24
m1 = 0.5005	1016.94
m1 = 0.7511	1026.37
m1 = 1	1035.33
m1 = 1.982	1067.68
m1 = 3.972	1119.87
m1 = 5.982	1158.32
m1 = 8.004	1185.89

CCCC(=O)[O-].[Na+] [sodium butyrate] + O
[1], Flow calorimetry
Conditions	molar heat capacity at constant pressure [J/K/mol]
m1 = 0.01976	75.41
m1 = 0.04005	75.47
m1 = 0.06005	75.54
m1 = 0.08053	75.61
m1 = 0.102	75.68
m1 = 0.2495	76.19
m1 = 0.4997	77.12
m1 = 0.7508	78.09
m1 = 1	79.11
m1 = 1.993	83.42
m1 = 4	91.23
m1 = 5.997	97.99

[2]
Conditions	mass density [kg/m3]
m1 = 0.01976	997.868
m1 = 0.04005	998.697
m1 = 0.06005	999.507
m1 = 0.08053	1000.32
m1 = 0.102	1001.17
m1 = 0.2495	1006.98
m1 = 0.4997	1016.49
m1 = 0.7508	1025.47
m1 = 1	1034.04
m1 = 1.993	1064.55
m1 = 4	1109.06
m1 = 5.997	1136.24

CC(=O)[O-].[Na+] [sodium ethanoate] + O
[1], Flow calorimetry
Conditions	molar heat capacity at constant pressure [J/K/mol]
m1 = 0.01999	75.34
m1 = 0.02177	75.33
m1 = 0.03988	75.34
m1 = 0.04259	75.33
m1 = 0.06003	75.33
m1 = 0.06004	75.33
m1 = 0.08011	75.34
m1 = 0.08018	75.34
m1 = 0.1002	75.34
m1 = 0.25	75.37
m1 = 0.4956	75.48
m1 = 0.4998	75.48
m1 = 0.9999	75.86
m1 = 1.997	77.13
m1 = 2.003	77.13
m1 = 4.532	81.99

[2]
Conditions	mass density
m1 = 0.01999	997.898 kg/m3
m1 = 0.02177	997.982 kg/m3
m1 = 0.03988	998.731 kg/m3
m1 = 0.04259	998.856 kg/m3
m1 = 0.06003	999.574 kg/m3
m1 = 0.06004	999.577 kg/m3
m1 = 0.08011	1000.41 kg/m3
m1 = 0.08018	1000.42 kg/m3
m1 = 0.1002	1001.25 kg/m3 and 1001.25 kg/m3
m1 = 0.25	1007.38 kg/m3
m1 = 0.4956	1017.13 kg/m3
m1 = 0.4998	1017.29 kg/m3
m1 = 0.9999	1036.14 kg/m3
m1 = 1.997	1070.48 kg/m3
m1 = 2.003	1070.59 kg/m3
m1 = 4.532	1141.59 kg/m3

— the NIST ThermoML archive (doi:10.1021/je200964m)
